Source: patent publication US20060079453A1, “Hla binding peptides and their uses” (priority 2002, published 2006)
Like-named read-outs stand apart in the source and are kept apart here. No end group written: not given here.

Key:
Experiment in all cases: biochemical
Assay type in all cases: binding
HLA-DR DRB4*0101 (DR53) = HLA-DR DRB4*0101 (DR53) (Homo sapiens, UniProt P01903+P13762, G164S); settings: DRB4 *0101
HLA-DR DRB1*1501 (DR15) = HLA-DR DRB1*1501 (DR15) (Homo sapiens, UniProt P01903+P01911); settings: DRBI *1501
HLA-DR DRB1*0701 (DR7) = HLA-DR DRB1*0701 (DR7) (Homo sapiens, UniProt P01903+P01911, A100R/A102G/A103Q/D57E/D86V/E43K/F76Y/K127E/L162R/M171V/P40G/Q125H/Q99D/R33Q/R42Y/R54Q/S133A/S66F/T210M/V115G/Y107V/Y59L/Y89S)
HLA-DR DRB1*0802 (DR8) = HLA-DR DRB1*0802 (DR8) (Homo sapiens, UniProt P01903+P01911, A100R/A103L/A169T/F76Y/H45Y/I96F/K41T/L162R/M171V/P40S/Q125H/Q178H/Q39Y/Q99D/R218S/R42G/S66Y/V115G/W38E)
HLA-DR DRB1*0401 (DR4) = HLA-DR DRB1*0401 (DR4) (Homo sapiens, UniProt P01903+P01911, A100K/A169T/F76Y/I96L/K127E/L162R/M171V/N62H/P40V/Q125Y/R42H/S133A/S149N/S66Y/V115G/V209L/W38E)
HLA-DR DRB1*0901 (DR9) = HLA-DR DRB1*0901 (DR9) (Homo sapiens, UniProt P01903+P01911, A100R/A103E/D57H/D86V/F55Y/F60I/F76Y/I96F/K127E/L162R/M171V/P40D/Q125H/Q99R/R33Q/R42F/S133A/S66N/T210M/V115G/W38K/Y107V/Y59G/Y89S)
HLA-DR DRB1*1302 (DR13) = HLA-DR DRB1*1302 (DR13) (Homo sapiens, UniProt P01903+P01911, A100E/A169T/K41T/L162R/M171V/P40S/Q125H/Q178H/Q39Y/Q99D/R42S/S66N/T262R/V115G/W38E/Y61H); settings: DRBI *1302
Sequence of HLA-DR DRB1*1302 (DR13) (P01903 26-254 limits assumed, other chains not shown): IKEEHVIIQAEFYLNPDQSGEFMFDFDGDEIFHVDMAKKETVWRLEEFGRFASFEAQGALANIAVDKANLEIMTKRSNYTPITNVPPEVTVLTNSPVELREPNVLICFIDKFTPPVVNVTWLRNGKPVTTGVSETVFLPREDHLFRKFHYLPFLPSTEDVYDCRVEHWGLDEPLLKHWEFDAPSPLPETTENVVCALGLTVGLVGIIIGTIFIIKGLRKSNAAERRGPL

HLA-DR DRB1*1101 (DR11) = HLA-DR DRB1*1101 (DR11) (Homo sapiens, UniProt P01903+P01911, A100R/A169T/A87E/I96F/K41T/L162R/M171V/P40S/Q125H/Q178H/Q39Y/Q99D/R42S/S66Y/T262R/V115G/W38E); settings: DRB1 *1101
Sequence of HLA-DR DRB1*1101 (DR11) (P01903 26-254 limits assumed, other chains not shown): as above

HLA-DR DRB1*0301 (DR3) = HLA-DR DRB1*0301 (DR3) (Homo sapiens, UniProt P01903+P01911, A100K/A102G/A103R/A169T/F55Y/I96L/K41T/L162R/M171V/P40S/Q125H/Q178H/Q39Y/R42S/S66N/T106N/T262R/W38E/Y61H)
Sequence of HLA-DR DRB1*0301 (DR3) (P01903 26-254 limits assumed, other chains not shown): as above

HLA-DR DRB5*0101 (DR51) = HLA-DR DRB5*0101 (DR51) (Homo sapiens, UniProt P01903+Q30154); settings: DRB5 *0101
HLA-DR DRB1*0101 (DR1) = HLA-DR DRB1*0101 (DR1) (Homo sapiens, UniProt P01903+P01911, A100R/D57E/F55L/F60I/F76Y/I96L/L162R/M171V/P40L/Q125E/R42F/V115G/Y59C)

| Molecule | IC50 (HLA-DR DRB4*0101 (DR53)) [µM] | IC50 (HLA-DR DRB1*1501 (DR15)) [µM] | IC50 (HLA-DR DRB1*0701 (DR7); DRB1 *0701) [µM] | IC50 (HLA-DR DRB1*0802 (DR8)) [µM] | IC50 (HLA-DR DRB1*0401 (DR4); DRB1 *0401) [µM] | IC50 (HLA-DR DRB1*0901 (DR9); DRB1 *0901) [µM] | IC50 (HLA-DR DRB1*1302 (DR13)) [µM] | IC50 (HLA-DR DRB1*1101 (DR11)) [µM] | IC50 (HLA-DR DRB1*0301 (DR3)) [µM] | IC50 (HLA-DR DRB5*0101 (DR51)) [µM] | IC50 (HLA-DR DRB1*0101 (DR1); DRB1 *0101) [µM] | IC50 (HLA-DR DRB1*0101 (DR1); read-out: DRB1 *0101) [µM] | IC50 (HLA-DR DRB1*0701 (DR7); read-out: DRB1 *0701) [µM] | IC50 (HLA-DR DRB1*0301 (DR3); read-out: DRB1 *0301) [µM] | IC50 (HLA-DR DRB1*0802 (DR8); read-out: DRB1 *0802) [µM] | IC50 (HLA-DR DRB1*0901 (DR9); read-out: DRB1 *0901) [µM] | IC50 (HLA-DR DRB1*0401 (DR4); read-out: DRB1 *0401) [µM] |
| --- | --- | --- | --- | --- | --- | --- | --- | --- | --- | --- | --- | --- | --- | --- | --- | --- | --- |
| IGYYDAQKLLEKMGG | 13.6 | 1.98 | > 83.3 | 8.24 | 12.6 | 47.2 | 5.73 | > 28.6 | – | – | – | – | – | – | – | – | – |
| IFAIFRQDSSSTGWN | 0.03 | 0.204 | – | 4.73 | 0.0096 | 0.97 | 0.775 | 4.56 | 0.402 | 109 | – | – | – | – | – | – | – |
| VEALYLVCGERGFLY | 0.019 | – | 5.35 | 10.6 | – | 3.06 | 1.87 | 55.4 | – | 5.15 | 0.014 | – | – | – | – | – | – |
| LAHYDVLLSYPNK | – | – | – | – | – | – | – | – | – | – | – | 0.079 | 3.62 | 37.5 | 0.415 | 1.01 | – |
| FYNQHLTGSHLVEAL | – | – | – | – | – | – | – | – | – | – | – | 0.0092 | 0.015 | 67.2 | > 54.4 | 41.5 | 0.858 |
| RGGMVFELANSIYLP | – | – | – | – | – | – | – | – | – | – | – | 0.01 | 0.041 | 37.1 | 8.68 | 0.033 | – |
| PRSLQCVSLHLLSND | 0.544 | 1.6 | 2.22 | 6.11 | 16 | 28.3 | 3.73 | 11.1 | – | 46.4 | 1.11 | – | – | – | – | – | – |
| CC[C@H](C)[C@H](NC(=O)[C@H](CO)NC(=O)[C@H](CC(C)C)NC(=O)[C@@H](NC(=O)[C@H](CC(C)C)NC(=O)[C@H](CC(=O)O)NC(=O)[C@H](Cc1c[nH]c2ccccc12)NC(=O)[C@@H](N)CCSC)C(C)C)C(=O)N[C@@H](C)C(=O)N[C@@H](CC(C)C)C(=O)N[C@@H](CO)C(=O)N[C@H](C(=O)NCC(=O)N[C@@H](CS)C(=O)N[C@H](C(=O)O)[C@@H](C)O)C(C)C | 0.158 | 11.4 | 3.03 | 23 | 1.85 | 1.73 | 0.108 | 81.1 | – | 70.7 | 0.205 | – | – | – | – | – | – |
| RQEILDLWVYHTQGF | – | 0.985 | 3.05 | 2.73 | 5.93 | 3.68 | – | 11.1 | 10.5 | > 20.5 | – | – | – | – | – | – | – |
| CSCC[C@H](NC(=O)[C@H](CCC(N)=O)NC(=O)[C@H](CC(C)C)NC(=O)CNC(=O)[C@H](CO)NC(=O)[C@@H](NC(=O)[C@@H](NC(=O)[C@@H](NC(=O)[C@@H](N)CC(=O)O)[C@@H](C)O)[C@@H](C)O)C(C)C)C(=O)N[C@@H](C)C(=O)N[C@@H](CC(C)C)C(=O)N[C@@H](CC(=O)O)C(=O)N[C@H](C(=O)N[C@@H](Cc1ccc(O)cc1)C(=O)N[C@@H](CC(N)=O)C(=O)O)C(C)C | 0.961 | 1.04 | 14.7 | > 245 | 4.42 | 2.88 | 3.5 | > 50 | – | > 200 | – | – | – | – | – | – | – |
